Test results taken from the NIST ThermoML archive (doi:10.1016/j.jct.2013.08.004).
± gives the expanded uncertainty stated by the source.

Test: molar enthalpy of vaporization or sublimation
Conditions: 298.15 K; Liquid; Static calorimetry

molar enthalpy: 59.2 ± 1.2 kJ/mol
SMILES: COC(=O)c1cccn1C [methyl 1-methyl-2-pyrrolecarboxylate]
